# Calls of active or inactive are those of the source. No cut-off for these calls is given here.
# Tests used:
# Type in all cases: cell-based
# Adenylate cyclase type 8 [1] = biological target: T1, Adenylate cyclase type 8 (Homo sapiens, UniProt P40145); experiment: Agonist activity at recombinant human AC8 expressed in human HEK293 cells assessed as fold increase in cAMP level at 50 uM by LANCE Ultra cAMP Detection kit method relative to control
# Adenylate cyclase type 8 [2] = biological target: T1, Adenylate cyclase type 8; experiment: Agonist activity at recombinant human AC8 expressed in human HEK293 cells assessed as fold increase in cAMP level by LANCE Ultra cAMP Detection kit method
# [3] = biological target: Adenylate cyclase type 1 (Homo sapiens) (UniProt Q08828); experiment: Agonist activity at recombinant human AC1 expressed in human HEK293 cells assessed as increase in cAMP level at 50 uM by LANCE Ultra cAMP Detection kit
# [4] = biological target: Adenylate cyclase type 5 (Homo sapiens) (UniProt O95622); experiment: Agonist activity at recombinant human AC5 expressed in human HEK293 cells assessed as increase in cAMP level at 50 uM by LANCE Ultra cAMP Detection kit method
# [5] = biological target: Adenylate cyclase type 2 (Homo sapiens) (UniProt Q08462); experiment: Agonist activity at recombinant human AC2 expressed in human HEK293 cells assessed as increase in cAMP level at 50 uM by LANCE Ultra cAMP Detection kit method
# Chain of Adenylate cyclase type 2 (Homo sapiens) (Q08462 whole entry): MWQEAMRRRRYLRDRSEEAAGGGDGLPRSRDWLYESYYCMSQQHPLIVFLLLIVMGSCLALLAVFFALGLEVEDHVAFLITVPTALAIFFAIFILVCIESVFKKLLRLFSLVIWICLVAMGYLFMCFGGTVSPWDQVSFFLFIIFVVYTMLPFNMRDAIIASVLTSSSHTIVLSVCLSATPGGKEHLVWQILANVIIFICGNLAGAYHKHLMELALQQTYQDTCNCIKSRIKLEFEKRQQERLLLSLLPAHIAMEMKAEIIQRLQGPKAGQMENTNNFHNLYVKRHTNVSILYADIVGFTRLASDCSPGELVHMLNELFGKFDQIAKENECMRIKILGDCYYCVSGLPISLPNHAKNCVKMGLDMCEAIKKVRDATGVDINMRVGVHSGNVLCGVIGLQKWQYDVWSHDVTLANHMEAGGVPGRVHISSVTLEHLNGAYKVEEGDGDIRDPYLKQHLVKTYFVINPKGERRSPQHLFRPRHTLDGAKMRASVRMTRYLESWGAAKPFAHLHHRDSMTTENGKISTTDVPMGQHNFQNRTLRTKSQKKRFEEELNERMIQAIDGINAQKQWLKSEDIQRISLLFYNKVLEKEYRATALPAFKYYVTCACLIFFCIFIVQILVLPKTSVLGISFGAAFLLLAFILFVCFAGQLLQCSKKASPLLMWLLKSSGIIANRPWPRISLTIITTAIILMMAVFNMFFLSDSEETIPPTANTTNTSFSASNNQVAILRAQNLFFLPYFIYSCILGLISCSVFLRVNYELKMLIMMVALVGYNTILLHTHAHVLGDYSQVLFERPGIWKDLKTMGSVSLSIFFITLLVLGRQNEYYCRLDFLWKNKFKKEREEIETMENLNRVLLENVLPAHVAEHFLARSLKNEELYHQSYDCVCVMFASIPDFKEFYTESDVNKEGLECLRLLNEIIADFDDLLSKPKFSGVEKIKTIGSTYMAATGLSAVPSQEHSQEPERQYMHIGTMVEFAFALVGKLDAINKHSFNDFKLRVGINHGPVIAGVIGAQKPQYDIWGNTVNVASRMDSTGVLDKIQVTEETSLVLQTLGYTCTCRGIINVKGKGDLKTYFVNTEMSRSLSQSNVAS
# T1 sequence (P40145 whole entry): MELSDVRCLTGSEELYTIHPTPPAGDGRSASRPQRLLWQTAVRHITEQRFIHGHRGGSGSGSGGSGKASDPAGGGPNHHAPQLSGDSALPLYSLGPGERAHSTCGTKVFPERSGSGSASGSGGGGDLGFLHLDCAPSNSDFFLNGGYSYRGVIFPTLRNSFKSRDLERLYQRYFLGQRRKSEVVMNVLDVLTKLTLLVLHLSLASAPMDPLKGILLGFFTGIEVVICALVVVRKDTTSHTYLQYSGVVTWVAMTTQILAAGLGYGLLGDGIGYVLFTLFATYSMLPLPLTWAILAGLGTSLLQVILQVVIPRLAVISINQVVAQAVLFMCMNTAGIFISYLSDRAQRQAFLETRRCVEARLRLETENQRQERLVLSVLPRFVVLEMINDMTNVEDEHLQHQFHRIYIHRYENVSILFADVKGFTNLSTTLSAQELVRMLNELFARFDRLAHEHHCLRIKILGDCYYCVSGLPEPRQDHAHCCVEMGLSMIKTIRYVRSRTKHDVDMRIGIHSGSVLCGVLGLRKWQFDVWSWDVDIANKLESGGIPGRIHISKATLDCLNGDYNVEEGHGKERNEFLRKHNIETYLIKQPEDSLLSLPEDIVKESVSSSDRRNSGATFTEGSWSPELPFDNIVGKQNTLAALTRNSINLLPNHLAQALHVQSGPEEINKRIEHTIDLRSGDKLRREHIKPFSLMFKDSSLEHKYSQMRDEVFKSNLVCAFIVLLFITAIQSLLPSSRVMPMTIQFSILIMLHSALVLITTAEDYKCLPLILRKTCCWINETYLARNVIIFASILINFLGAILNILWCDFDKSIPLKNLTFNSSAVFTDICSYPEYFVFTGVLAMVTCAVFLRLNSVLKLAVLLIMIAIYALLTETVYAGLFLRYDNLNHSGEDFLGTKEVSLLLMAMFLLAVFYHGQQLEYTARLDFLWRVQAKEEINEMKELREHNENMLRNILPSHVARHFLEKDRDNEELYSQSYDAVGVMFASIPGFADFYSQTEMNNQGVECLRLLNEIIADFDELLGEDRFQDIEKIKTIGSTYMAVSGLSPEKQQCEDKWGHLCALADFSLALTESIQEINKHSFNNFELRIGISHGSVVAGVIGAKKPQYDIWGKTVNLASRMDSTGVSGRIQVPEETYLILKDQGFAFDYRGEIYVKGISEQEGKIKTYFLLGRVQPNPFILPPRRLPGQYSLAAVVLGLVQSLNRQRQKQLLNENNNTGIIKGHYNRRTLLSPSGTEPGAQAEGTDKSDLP
# Chain of Adenylate cyclase type 5 (Homo sapiens) (O95622 whole entry, looked up): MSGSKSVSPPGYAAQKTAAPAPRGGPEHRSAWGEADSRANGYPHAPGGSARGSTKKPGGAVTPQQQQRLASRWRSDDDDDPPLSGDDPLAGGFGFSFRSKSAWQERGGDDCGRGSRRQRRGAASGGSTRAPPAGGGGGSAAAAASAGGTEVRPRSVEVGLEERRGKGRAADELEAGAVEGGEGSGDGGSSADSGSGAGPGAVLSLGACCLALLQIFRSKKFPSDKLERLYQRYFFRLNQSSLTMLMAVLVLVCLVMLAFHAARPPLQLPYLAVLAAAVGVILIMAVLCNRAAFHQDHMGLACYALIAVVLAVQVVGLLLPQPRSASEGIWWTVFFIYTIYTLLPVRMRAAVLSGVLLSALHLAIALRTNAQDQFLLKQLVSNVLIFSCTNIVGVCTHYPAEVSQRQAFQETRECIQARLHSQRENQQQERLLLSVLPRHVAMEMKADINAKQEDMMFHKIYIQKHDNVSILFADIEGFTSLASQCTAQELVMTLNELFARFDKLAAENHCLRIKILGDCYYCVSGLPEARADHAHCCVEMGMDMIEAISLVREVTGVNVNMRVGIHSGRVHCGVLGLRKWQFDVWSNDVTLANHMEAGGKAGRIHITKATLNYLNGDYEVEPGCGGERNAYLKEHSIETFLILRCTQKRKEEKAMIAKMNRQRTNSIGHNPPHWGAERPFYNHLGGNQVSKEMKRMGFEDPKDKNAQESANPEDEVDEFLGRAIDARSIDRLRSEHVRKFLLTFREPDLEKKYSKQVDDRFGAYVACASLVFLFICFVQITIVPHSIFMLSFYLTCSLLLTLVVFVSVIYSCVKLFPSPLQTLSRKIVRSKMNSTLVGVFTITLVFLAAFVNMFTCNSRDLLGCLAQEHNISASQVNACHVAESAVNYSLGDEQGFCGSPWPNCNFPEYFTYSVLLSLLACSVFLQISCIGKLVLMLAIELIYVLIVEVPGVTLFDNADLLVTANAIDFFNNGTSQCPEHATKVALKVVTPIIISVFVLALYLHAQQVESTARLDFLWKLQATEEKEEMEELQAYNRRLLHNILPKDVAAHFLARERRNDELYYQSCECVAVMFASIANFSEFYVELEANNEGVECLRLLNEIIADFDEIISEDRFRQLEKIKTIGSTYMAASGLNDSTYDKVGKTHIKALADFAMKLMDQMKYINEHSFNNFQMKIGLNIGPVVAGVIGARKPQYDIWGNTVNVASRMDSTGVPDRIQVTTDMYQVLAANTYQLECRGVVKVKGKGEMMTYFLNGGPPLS
# Chain of Adenylate cyclase type 1 (Homo sapiens) (Q08828 whole entry, looked up): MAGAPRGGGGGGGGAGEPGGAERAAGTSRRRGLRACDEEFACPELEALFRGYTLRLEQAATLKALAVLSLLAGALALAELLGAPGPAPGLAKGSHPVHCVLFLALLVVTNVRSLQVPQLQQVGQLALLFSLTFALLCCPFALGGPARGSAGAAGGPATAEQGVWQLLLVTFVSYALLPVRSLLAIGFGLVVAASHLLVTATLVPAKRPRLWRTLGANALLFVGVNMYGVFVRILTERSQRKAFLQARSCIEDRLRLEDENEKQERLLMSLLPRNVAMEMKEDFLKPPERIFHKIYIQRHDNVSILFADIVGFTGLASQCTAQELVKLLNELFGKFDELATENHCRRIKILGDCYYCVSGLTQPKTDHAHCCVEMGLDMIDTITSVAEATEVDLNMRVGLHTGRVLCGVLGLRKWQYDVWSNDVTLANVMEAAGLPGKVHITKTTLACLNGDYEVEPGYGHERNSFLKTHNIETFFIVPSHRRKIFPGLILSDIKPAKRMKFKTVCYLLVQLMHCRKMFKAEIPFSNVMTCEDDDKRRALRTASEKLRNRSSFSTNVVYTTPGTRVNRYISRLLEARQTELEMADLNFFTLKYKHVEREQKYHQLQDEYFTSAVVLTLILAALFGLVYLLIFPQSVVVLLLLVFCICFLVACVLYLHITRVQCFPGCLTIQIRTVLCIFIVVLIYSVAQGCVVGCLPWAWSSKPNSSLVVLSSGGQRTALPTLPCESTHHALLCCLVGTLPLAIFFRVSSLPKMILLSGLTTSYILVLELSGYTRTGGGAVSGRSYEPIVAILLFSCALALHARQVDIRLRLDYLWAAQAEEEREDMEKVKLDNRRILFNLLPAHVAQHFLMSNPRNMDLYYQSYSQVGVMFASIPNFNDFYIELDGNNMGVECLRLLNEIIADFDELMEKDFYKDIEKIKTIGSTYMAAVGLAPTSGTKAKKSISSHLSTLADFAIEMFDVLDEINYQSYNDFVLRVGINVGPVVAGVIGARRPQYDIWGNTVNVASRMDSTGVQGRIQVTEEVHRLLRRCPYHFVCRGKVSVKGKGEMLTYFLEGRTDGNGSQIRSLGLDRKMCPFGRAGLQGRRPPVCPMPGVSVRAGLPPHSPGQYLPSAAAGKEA
fold change (FC) (Adenylate cyclase type 8 [1]),EC50 (Adenylate cyclase type 8 [2]),Activity [3],Activity [4],Activity [5],Activity (Adenylate cyclase type 8 [2]),SMILES
35,93.7 nM,,,,,C=C[C@@]1(C)CC(=O)[C@]2(O)[C@@]3(C)[C@@H](O)CCC(C)(C)[C@@H]3[C@H](O)[C@H](OC(C)=O)[C@@]2(C)O1 [COLFORSIN]
33,105 nM,inactive,inactive,inactive,Dose-dependent effect,CCOC(=O)C1(Cc2ccc(Cl)cc2Cl)C(=O)Nc2ccccc21 (stereo not drawn)

# Reference: ChEMBL document CHEMBL4602624, “Discovery of a potent and selective adenylyl cyclase type 8 agonist by docking-based virtual screening” (Bioorg Med Chem Lett, 2020)
